For 28 molecules, IC50 results are on record in patent publication US20240308995A1, “O-GLYCOPROTEIN-2-ACETAMIDO-2-DEOXY-3-D-GLUCOPYRANOSIDASE INHIBITORS” (BIOGEN MA INC., priority 2018, published 2024).

Where a name gives a salt, the structure may show the parent alone.

Assay [1] concerns the target Recombinant full length human OGA enzyme (Homo sapiens (Human), UniProt O60502). Briefly: OGA Enzyme Inhibition Biochemical Assay. The procedure:
Recombinant full length human OGA enzyme was purchased from Origene. 4-MUGlcNAc substrate was purchased from Sigma. All other reagents were purchased from Sigma or Fisher. Assay buffer consists of the McIlvaine buffer system, pH 6.4 (0.2M Na2HPO4 mixed with 0.1M citric acid) and 0.01% BSA. […] Reactions were incubated for 90 minutes at room temperature and quenched with 40 μl of 3M glycine, pH 10 and read on a Perkin Elmer Envision plate reader (Ex: 355 nm/Em: 460 nm). Compounds were tested with a 10-point dose-response starting from 20 μM with a 4-fold dilution. Data was fit using GraphPad Prism using a 4-parameter fit with variable slope.

Assay [2] deals with OGA (S400 O-GLCNAC), HEK-293T cells transfected with Tau-V5 (Homo sapiens (Human), UniProt O60502). Briefly: Cellular OGA-Tau MSD Assay. In kind it is cell-based. Here is the method:
HEK-293T cells were transfected with […] and Tau-V5 plasmids using Lipofectamine and grown overnight. Next day, the cells were collected and re-plated at 1×10^5 cells per well in 96 well plates. Cells were incubated for 4 hr at 37° C., before compounds were added at 1 uM, with 3-fold dilutions in a 10-point titration. Cell plates were incubated with compounds overnight at 37° C. The next day media was removed from wells by gentle aspiration and 120 ul of 1× Cell Lysis buffer mixed with protease and phosphatase cocktail added to each well. A freeze thaw was performed at -80° C., then mixed before transferring 50 ul to MSD plates coated with V5-tag antibody to capture Tau. MSD Plates were incubated overnight at 4° C., on a plate shaker. The following day, plates were washed and incubated with Tau-[…]-GlcNAc antibody for 2 hr and then developed with rabbit Sulfo-tag antibody. Final read out was carried out on an MSD 600 reader. The data was analyzed using Graph Pad or Genedata, the data was normalized and % activity versus log of compound concentration was plotted. The IC50 values were obtained from a 4 parameter fit.

The mark [3] stands for this setting: 1 nM OGA, 100 μM 4-MUGlcNAc, pH 6.4.
[4] abbreviates: HEK-293T cells, Tau-S400-GlcNAc MSD readout.
Setting [5] is: repeated assay, value marked with asterisk (*).

Sequence of Recombinant full length human OGA enzyme (O60502 whole entry): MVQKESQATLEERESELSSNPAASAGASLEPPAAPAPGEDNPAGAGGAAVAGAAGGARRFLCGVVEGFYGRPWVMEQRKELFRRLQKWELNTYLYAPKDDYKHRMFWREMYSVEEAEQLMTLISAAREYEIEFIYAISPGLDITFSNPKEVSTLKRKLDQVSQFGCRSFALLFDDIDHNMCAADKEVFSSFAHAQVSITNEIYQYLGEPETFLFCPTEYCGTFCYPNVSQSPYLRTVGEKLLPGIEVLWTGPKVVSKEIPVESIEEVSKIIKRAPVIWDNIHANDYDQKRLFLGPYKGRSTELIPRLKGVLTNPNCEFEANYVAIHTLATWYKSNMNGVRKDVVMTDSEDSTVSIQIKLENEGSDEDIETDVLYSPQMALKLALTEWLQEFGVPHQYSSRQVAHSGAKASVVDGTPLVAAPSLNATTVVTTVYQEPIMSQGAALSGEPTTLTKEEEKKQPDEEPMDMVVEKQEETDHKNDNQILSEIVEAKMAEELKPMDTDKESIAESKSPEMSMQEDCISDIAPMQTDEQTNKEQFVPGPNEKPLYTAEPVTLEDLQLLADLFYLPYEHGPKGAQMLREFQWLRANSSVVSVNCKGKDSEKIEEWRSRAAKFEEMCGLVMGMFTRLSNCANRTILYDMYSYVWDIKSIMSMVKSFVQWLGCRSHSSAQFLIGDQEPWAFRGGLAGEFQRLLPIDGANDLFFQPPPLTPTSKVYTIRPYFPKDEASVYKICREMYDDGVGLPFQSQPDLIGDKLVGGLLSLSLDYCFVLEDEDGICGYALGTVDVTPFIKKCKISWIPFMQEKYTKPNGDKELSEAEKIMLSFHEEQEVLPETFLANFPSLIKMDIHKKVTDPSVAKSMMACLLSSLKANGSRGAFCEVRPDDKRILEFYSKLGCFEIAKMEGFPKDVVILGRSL
Sequence of OGA (S400 O-GLCNAC), HEK-293T cells transfected with Tau-V5 (O60502 whole entry): as above

On to `[2H]C([2H])([2H])Oc1cc(O[C@@H]2C[C@H](C)N(Cc3sc(NC(C)=O)nc3F)C2)ncn1` (single isomer, unassigned) [Example 1-155], for which the IC50 in assay [1] (setting [3]) is < 1 nM; in assay [2] (setting [4]) it was 2 nM. Take `[2H]C([2H])([2H])C(=O)Nc1nc(F)c(CN2C[C@H](Oc3cc(OC)ncn3)C[C@@H]2C)s1` (single isomer, unassigned) [Example 1-157, trifluoroacetate salt]: the IC50 is < 1 nM in assay [1] (setting [3]) and 3 nM in assay [2] (setting [4]). The matching figures for `[2H]C(c1sc(NC(C)=O)nc1F)N1C[C@H](Oc2cc(OC)ncn2)C[C@@H]1C` (single isomer, unassigned) [Example 1-159]: < 1 nM and 1 nM. As for `[2H]C([2H])(c1sc(NC(C)=O)nc1F)N1C[C@H](Oc2cc(OC)ncn2)C[C@@H]1C` (single isomer, unassigned) [Example 1-161], the IC50 is < 1 nM in assay [1] (setting [3]) and 4 nM in assay [2] (setting [4]). The like results for `[2H][C@@]1(Oc2cc(OC)ncn2)C[C@H](C)N(Cc2sc(NC(C)=O)nc2F)C1` (single isomer, unassigned) [Example 1-165] were, in that order, < 1 nM and 2 nM. The like results for `CC(=O)Nc1ncc(CN2C[C@H](Oc3ccc(F)cn3)CC[C@@H]2C)s1` [Example 1-4, N-(5-(((2S,5R)-5-((5-fluoropyridin-2-yl)oxy)-2-methylpiperidin-1-yl)methyl)thiazol-2-yl)acetamide] were, in that order, 1.2 nM and 6 nM.

As for `CC(=O)Nc1ncc(CN2C[C@@H](Oc3ccc(F)cn3)CC[C@@H]2C)s1` [Example 1-5, N-(5-(((2S,5S)-5-((5-fluoropyridin-2-yl)oxy)-2-methylpiperidin-1-yl)methyl)thiazol-2-yl)acetamide], the IC50 in assay [1] (setting [3]) is 1.6 nM; in assay [2] (setting [4]), 4 nM. Consider `CC(=O)Nc1ncc(CN2CC[C@H](Oc3ccc(F)cn3)C2)s1` [Example 1-7, (S)—N-(5-((3-((5-fluoropyridin-2-yl)oxy)pyrrolidin-1-yl)methyl)thiazol-2-yl)acetamide], for which the results for the IC50 in assay [1] (setting [3]) and in assay [1] (setting [5]) were > 1000 nM and 2000 nM, respectively. Take `COc1ncnc(O[C@@H]2C[C@H](C)N(Cc3cnc(NC(C)=O)s3)C2)c1F` [Example 1-19, N-(5-(((2S,4R)-4-((5-fluoro-6-methoxypyrimidin-4-yl)oxy)-2-methylpyrrolidin-1-yl)methyl)thiazol-2-yl)acetamide]: the values for the IC50 in assay [1] (setting [3]) and in assay [2] (setting [5]) were 1.2 nM and 6 nM, respectively.

For `COc1cc(O[C@@H]2C[C@H](C)N(Cc3sc(NC(C)=O)nc3F)C2)ncn1` [Example 1-22, N-(4-Fluoro-5-(((2S,4R)-4-((6-methoxypyrimidin-4-yl)oxy)-2-methylpyrrolidin-1-yl)methyl)thiazol-2-yl)acetamide], the IC50 was < 1 nM in assay [1] (setting [3]) and 2 nM in assay [2] (setting [4]). The like results for `CC(=O)Nc1nc(F)c(CN2C[C@H](Oc3cc(N4CCC4)ncn3)C[C@@H]2C)s1` [Example 1-24, N-(5-(((2S,4R)-4-((6-(azetidin-1-yl)pyrimidin-4-yl)oxy)-2-methylpyrrolidin-1-yl)methyl)-4-fluorothiazol-2-yl)acetamide] were, in that order, < 1 nM and 1 nM. The like results for `CC(=O)Nc1nc(F)c(CN2C[C@H](Oc3cc(N4CC(F)C4)ncn3)C[C@@H]2C)s1` [Example 1-25, N-(4-fluoro-5-(((2S,4R)-4-((6-(3-fluoroazetidin-1-yl)pyrimidin-4-yl)oxy)-2-methylpyrrolidin-1-yl)methyl)thiazol-2-yl)acetamide] were, in that order, < 1 nM and < 1 nM. As to `CC(=O)Nc1nc(F)c(CN2C[C@H](Oc3cc(N4CC(F)(F)C4)ncn3)C[C@@H]2C)s1` [Example 1-26, N-(5-(((2S,4R)-4-((6-(3,3-difluoroazetidin-1-yl)pyrimidin-4-yl)oxy)-2-methylpyrrolidin-1-yl)methyl)-4-fluorothiazol-2-yl)acetamide], the IC50 in assay [1] (setting [3]) is < 1 nM; in assay [2] (setting [4]) it was 1 nM. As for `COc1cc(O[C@H]2CCN(Cc3sc(NC(C)=O)nc3F)C2)ncn1` [Example 1-27, (S)—N-(4-fluoro-5-((3-((6-methoxypyrimidin-4-yl)oxy)pyrrolidin-1-yl)methyl)thiazol-2-yl)acetamide], in assay [1] (setting [3]), the IC50 came to 850 nM. As to `COc1cc(O[C@@H]2C[C@@H](C)N(Cc3sc(NC(C)=O)nc3F)C2)ncn1` [Example 1-29, N-(4-fluoro-5-(((2R,4R)-4-((6-methoxypyrimidin-4-yl)oxy)-2-methylpyrrolidin-1-yl)methyl)thiazol-2-yl)acetamide], the IC50 in assay [1] (setting [3]) is 58 nM; in assay [2] (setting [4]), 97 nM. As for `COc1cc(O[C@H]2C[C@H](C)N(Cc3sc(NC(C)=O)nc3F)C2)ncn1` [Example 1-30, N-(4-fluoro-5-(((2S,4S)-4-((6-methoxypyrimidin-4-yl)oxy)-2-methylpyrrolidin-1-yl)methyl)thiazol-2-yl)acetamide], the IC50 came to 15 nM in assay [1] (setting [3]) and 21 nM in assay [2] (setting [4]). The matching figures for `COc1cc(O[C@H]2C[C@@H](C)N(Cc3sc(NC(C)=O)nc3F)C2)ncn1` [Example 1-31, N-(4-fluoro-5-(((2R,4S)-4-((6-methoxypyrimidin-4-yl)oxy)-2-methylpyrrolidin-1-yl)methyl)thiazol-2-yl)acetamide]: 2900 nM and > 1000 nM. Consider `COc1cc(O[C@H]2CCN(Cc3cnc(NC(C)=O)s3)C2)ncn1` [Example 1-36, (S)—N-(5-((3-((6-methoxypyrimidin-4-yl)oxy)pyrrolidin-1-yl)methyl)thiazol-2-yl)acetamide], for which, in assay [1] (setting [3]), the IC50 amounted to 1700 nM. As for `COc1cc(O[C@@H]2CCN(Cc3cnc(NC(C)=O)s3)C2)ncn1` [Example 1-37, (R)—N-(5-((3-((6-methoxypyrimidin-4-yl)oxy)pyrrolidin-1-yl)methyl)thiazol-2-yl)acetamide], the IC50 in assay [1] (setting [3]) was determined as 36 nM; in assay [2] (setting [4]) it was 27 nM. Consider `CC(=O)Nc1ncc(CN2C[C@@H](Oc3cc(C)nc(C)c3)CC[C@@H]2C)s1` [Example 1-66, N-(5-(((2S,5S)-5-((2,6-dimethylpyridin-4-yl)oxy)-2-methylpiperidin-1-yl)methyl)thiazol-2-yl)acetamide], for which the IC50 was < 1 nM in assay [1] (setting [3]) and 4 nM in assay [2] (setting [4]). In the case of `CC(=O)Nc1ncc(CN2C[C@H](Oc3cc(C)nc(C)c3)CC[C@@H]2C)s1` [Example 1-67, N-(5-(((2S,5R)-5-((2,6-dimethylpyridin-4-yl)oxy)-2-methylpiperidin-1-yl)methyl)thiazol-2-yl)acetamide], the half-maximal inhibitory concentration (IC50) in assay [1] (setting [3]) was < 1 nM; in assay [2] (setting [4]) it was 3 nM. In assay [2] (setting [4]), `CC(=O)Nc1ncc(CN2C[C@H](Oc3cc(=O)n(C)cn3)C[C@@H]2C)s1` [Example 1-70, N-(5-(((2S,4R)-2-methyl-4-((1-methyl-6-oxo-1,6-dihydropyrimidin-4-yl)oxy)pyrrolidin-1-yl)methyl)thiazol-2-yl)acetamide] showed an IC50 of 5 nM. For `COc1cncnc1O[C@@H]1C[C@H](C)N(Cc2cnc(NC(C)=O)s2)C1` [Example 1-74], the values for the IC50 in assay [1] (setting [3]) and in assay [2] (setting [4]) were 6.4 nM and 13 nM, respectively. Consider `CC(=O)Nc1nc(F)c(CN2C[C@H](Oc3cc(C)c(F)cn3)C[C@@H]2C)s1` [Example 1-117, N-(4-fluoro-5-(((2S,4R)-4-((5-fluoro-4-methylpyridin-2-yl)oxy)-2-methylpyrrolidin-1-yl)methyl)thiazol-2-yl)acetamide], for which the IC50 in assay [1] (setting [3]) is < 1 nM. Same read-out and setting: under `COCCOc1cnc(O[C@@H]2C[C@H](C)N(Cc3sc(NC(C)=O)nc3F)C2)cn1` [Example 1-144, N-(4-fluoro-5-(((2S,4R)-4-((5-(2-methoxyethoxy)pyrazin-2-yl)oxy)-2-methylpyrrolidin-1-yl)methyl)thiazol-2-yl)acetamide] stands < 1 nM; under `COCCN(C)c1ccnc(O[C@@H]2C[C@H](C)N(Cc3sc(NC(C)=O)nc3F)C2)c1` [Example 1-145, N-(4-fluoro-5-(((2S,4R)-4-((4-((2-methoxyethyl) (methyl)amino)pyridin-2-yl)oxy)-2-methylpyrrolidin-1-yl)methyl)thiazol-2-yl)acetamide], < 1 nM. Same read-out and setting: next, `CC(=O)Nc1nc(F)c(CN2C[C@H](Oc3ccc(N4CCOCC4)cn3)C[C@@H]2C)s1` [Example 1-146, N-(4-fluoro-5-(((2S,4R)-2-methyl-4-((5-morpholinopyridin-2-yl)oxy)pyrrolidin-1-yl)methyl)thiazol-2-yl)acetamide]: < 1 nM; `COCCOc1ccnc(O[C@@H]2C[C@H](C)N(Cc3sc(NC(C)=O)nc3F)C2)c1` [Example 1-147, N-(4-fluoro-5-(((2S,4R)-4-((4-(2-methoxyethoxy)pyridin-2-yl)oxy)-2-methylpyrrolidin-1-yl)methyl)thiazol-2-yl)acetamide]: < 1 nM.
